Measurements as given in patent publication US7148338B2, “Nucleic acids encoding dipeptidyl peptidases” (The University of Sydney, priority 1999, dated 2006).
Non-standard residues stand in square brackets, D forms with d. Residues, ends and D or L forms follow the SMILES beside them. *: point of attachment. Sta = CC(C)C[C@H](N)[C@@H](O)CC(=O)O; pNA = O=[N+]([O-])c1ccc(N*)cc1; Isovaleryl = CC(C)CC(=O)*; Cbz = O=C(OCc1ccccc1)*

Columns and labels:
DPPIV [1] = target: T1, DPPIV (Homo sapiens, UniProt P27487); test: Inhibition of peptidase activity of purified DPPIV, substrate H-Gly-Pro-pNA; type: biochemical; design: His tag; made in house; host or cells: transfected COS-7 cells; solubilised with 1% Triton X-100; settings: 1 mM H-Gly-Pro-pNA, pH 7.4
Protocol: (§1) Cells (1×10^7) expressing each protein were sonicated in native buffer (50 mM sodium phosphate, 300 mM NaCl), then treated with 700 U DNAse for 20 min at room temperature. DPPIV is expressed at the cell surface, so 1% Triton X-100 was used to solubilize DPPIV/V5/His. Insoluble material was removed by centrifugation. The supernatant was incubated with 1 mL Talon® Metal Affinity Resin (Clontech) following the manufacturer's instructions for a batch/gravity flow procedure. The resin was washed with 50 mM sodium phosphate, containing 300 mM NaCl and 5 mM imidazole, and proteins were eluted using the same buffer containing 150 mM imidazole. Enzyme activity was used to monitor eluted fractions.
(§2) Enzyme assays were performed as described previously. Either clarified cell extract from 1×10^4 sonicated COS-7 cells or purified protein derived from 1×10^5 cells was incubated with substrate in 70 μL phosphate buffer, pH 7.4, for 30 min at 37° C., except where otherwise indicated. The specific DPPIV substrates, Gly-Pro-toluenesulfonate, H-Gly-Pro-p-nitroanilide (NA)/HCl (Sigma, St Louis, Mo., USA) and Gly-Pro-7-amino-4-trifluromethylcoumarin (Calbiochem, San Diego, Calif., USA) were tested. Other substrates tested were H-Ala-Pro-pNA/HCl, H-Arg-Pro-pNA acetate salt, H-Lys-Ala-pNA.2HCl, H-Asp-Pro-pNA, H-Ala-Ala-pNA/HCl, H-Ala-Ala-Pro-pNA/HCl, H-Ala-Ala-Phe-pNA, succinyl-Ala-Pro-pNA, H-Ala-Phe-Pro-pNA and Z-Ala-Pro-p-NA from Bachem (Switzerland). H-Ala-Pro-4-methoxyβNA/HCl, Z-Lys-Pro-4-methoxyβNAformate salt, H-Lys-Pro-4-methoxyβNA/HCl, Z-Ala-Pro-4-methoxyβNA, H-Gly-Pro-βNA and H-His-Ser-4-methoxyβNAacetate salt (Bachem) were tested for their ability to stain unfixed transfected cells. All inhibitors were (see Table 2) incubated with each purified enzyme in phosphate buffer, pH 7.4, for 15 min before the addition of substrate. After the addition of 1 mM H-Ala-Pro-pNA substrate for purified DPP8 and 1 mM H-Gly-Pro-pNA substrate for purified DPPIV, samples were incubated for 60 min at 37° C. All enzyme assays were performed in triplicate.

DPP8 [2] = target: T2, DPP8 (Homo sapiens, UniProt Q6V1X1); test: Inhibition of peptidase activity of purified DPP8, substrate H-Ala-Pro-pNA; type: biochemical; design: the full length DPP8 cDNA of 3.1 kb was cloned into the Xba I site of pcDNA3.1A/V5/His expression vector; His tag (C); made in house; host or cells: COS-7 cells, stably transfected; settings: for Residual activity (% of control): 1 mM H-Ala-Pro-pNA, pH 7.4
Protocol: as §1, §2

[3] = system: DPP8-transfected COS cells and CHO cells; test: Cytochemical staining of unfixed transfected cell monolayers by substrates; type: cell-based; settings: data not shown
Protocol: (§3) Monkey kidney fibroblast (COS-7) cells (American Type Culture Collection, CRL-1651) were grown and transfected as described previously. For making stable cell lines, Geneticin (G418; Gibco-BRL) was added to the medium, beginning 24 h after transfection. COS cell extracts were prepared by sonication followed by differential centrifugation and neither boiled nor reduced before SDS/PAGE (10% gel) and transfer to nitrocellulose, as described previously. The presence of DPP8 fused with the V5 epitope was detected using an anti-V5 mAb (Invitrogen). COS cell monolayers were fixed in cold ethanol before staining with anti-V5 mAb. Some monolayers were fixed in 4% paraformaldehyde and permeabilized with 0.1% Triton X-100 [35], then double-stained with wheat germ agglutinin to label Golgi apparatus and with goat anti-mouse IgG to label DPP8, conjugated to Alexa Fluor 488 and Alexa Fluor 594, respectively (Molecular Probes, Eugene, Oreg., USA). Flow cytometry and confocal scanning microscopy using a Leica TCS-NT confocal microscope have been described previously.
Enzyme assays were performed as described previously. Either clarified cell extract from 1×10^4 sonicated COS-7 cells or purified protein derived from 1×10^5 cells was incubated with substrate in 70 μL phosphate buffer, pH 7.4, for 30 min at 37° C., except where otherwise indicated. […]

DPP8/V5/His = target: T3, DPP8/V5/His (Homo sapiens, UniProt Q6V1X1); test: Substrate hydrolysis by purified recombinant DPP8/V5/His; type: biochemical
T3 construct: the full length DPP8 cDNA of 3.1 kb was cloned into the Xba I site of pcDNA3.1A/V5/His expression vector; His tag (C); made in house; host or cells: COS-7 cells, stably transfected
Protocol: as §1, §2

DPP8 [4] = target: T2, DPP8; test: Substrate hydrolysis by extracts of DPP8-transfected COS-7 cells; type: biochemical; design: the full length DPP8 cDNA of 3.1 kb was cloned into the Xba I site of pcDNA3.1A/V5/His expression vector; expressed in transfected cells; host or cells: COS-7 (monkey kidney fibroblast) cells; clarified sonicated cell extract; settings: above the levels of untransfected COS-7 cells; data not shown
Protocol: as §3, §2
DPPIV expressed in COS-7 cells with or without the V5/His tag were positive controls, and negative controls included vector-only transfected COS07 cells. […] The pH optimum of DPP8 enzyme activity was 7.4 (FIG. 5A), similar to the pH 7.8 optimum DPPIV enzyme activity. […]

DPPIV/V5/His = target: T4, DPPIV/V5/His (Homo sapiens, UniProt P27487); test: Substrate hydrolysis by purified recombinant DPPIV/V5/His; type: biochemical
T4 construct: His tag; made in house; host or cells: transfected COS-7 cells; solubilised with 1% Triton X-100
Protocol: as §1, §2

DPPIV [5] = target: T1, DPPIV; test: Enzyme kinetics (Km, Vmax) of purified DPPIV; type: biochemical; design: His tag; made in house; host or cells: transfected COS-7 cells; solubilised with 1% Triton X-100; settings: for Km: Michaelis-Menten fit
Protocol: (§4) FIG. 7. DPP8 enzyme activity. (A) pH-dependence of DPP8 enzyme activity. (B) DPP8 and DPPIV enzyme kinetics. Means +/− SD of absorbance change per minute, multiplied by 1000 are shown. Curve fitting assumed Michaelis-Menten kinetics.
as §1, §2

DPP8 [6] = target: T2, DPP8; test: Enzyme kinetics (Km, Vmax) of purified DPP8; type: biochemical; design: the full length DPP8 cDNA of 3.1 kb was cloned into the Xba I site of pcDNA3.1A/V5/His expression vector; His tag (C); made in house; host or cells: COS-7 cells, stably transfected; settings: for Km: Michaelis-Menten fit
Protocol: as §4, §1, §2

DPPIV [7] = target: T1, DPPIV; settings: reference [46]; cited from earlier work

T4 sequence (P27487 whole entry): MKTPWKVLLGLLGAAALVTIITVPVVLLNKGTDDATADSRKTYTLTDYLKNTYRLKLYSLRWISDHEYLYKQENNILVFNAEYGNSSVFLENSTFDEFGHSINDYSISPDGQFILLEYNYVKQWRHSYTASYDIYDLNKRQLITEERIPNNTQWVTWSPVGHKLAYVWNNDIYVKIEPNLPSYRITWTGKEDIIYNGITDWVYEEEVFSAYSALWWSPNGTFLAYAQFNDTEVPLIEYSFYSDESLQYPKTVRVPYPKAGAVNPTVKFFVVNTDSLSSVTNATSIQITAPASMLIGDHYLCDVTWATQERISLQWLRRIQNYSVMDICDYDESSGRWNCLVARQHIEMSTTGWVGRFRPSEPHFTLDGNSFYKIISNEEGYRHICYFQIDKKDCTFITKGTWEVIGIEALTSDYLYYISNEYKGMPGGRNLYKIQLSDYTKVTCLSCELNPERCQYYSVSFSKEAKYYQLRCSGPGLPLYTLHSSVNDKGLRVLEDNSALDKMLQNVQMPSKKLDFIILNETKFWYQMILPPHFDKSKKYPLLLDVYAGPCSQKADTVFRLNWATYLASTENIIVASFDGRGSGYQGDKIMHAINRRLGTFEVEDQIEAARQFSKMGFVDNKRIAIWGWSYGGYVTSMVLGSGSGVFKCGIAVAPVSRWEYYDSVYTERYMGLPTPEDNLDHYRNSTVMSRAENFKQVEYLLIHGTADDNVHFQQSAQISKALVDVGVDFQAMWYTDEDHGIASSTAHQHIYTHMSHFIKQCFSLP
T1 sequence (P27487 whole entry): as above
T2 sequence (Q6V1X1 17-898 limits assumed): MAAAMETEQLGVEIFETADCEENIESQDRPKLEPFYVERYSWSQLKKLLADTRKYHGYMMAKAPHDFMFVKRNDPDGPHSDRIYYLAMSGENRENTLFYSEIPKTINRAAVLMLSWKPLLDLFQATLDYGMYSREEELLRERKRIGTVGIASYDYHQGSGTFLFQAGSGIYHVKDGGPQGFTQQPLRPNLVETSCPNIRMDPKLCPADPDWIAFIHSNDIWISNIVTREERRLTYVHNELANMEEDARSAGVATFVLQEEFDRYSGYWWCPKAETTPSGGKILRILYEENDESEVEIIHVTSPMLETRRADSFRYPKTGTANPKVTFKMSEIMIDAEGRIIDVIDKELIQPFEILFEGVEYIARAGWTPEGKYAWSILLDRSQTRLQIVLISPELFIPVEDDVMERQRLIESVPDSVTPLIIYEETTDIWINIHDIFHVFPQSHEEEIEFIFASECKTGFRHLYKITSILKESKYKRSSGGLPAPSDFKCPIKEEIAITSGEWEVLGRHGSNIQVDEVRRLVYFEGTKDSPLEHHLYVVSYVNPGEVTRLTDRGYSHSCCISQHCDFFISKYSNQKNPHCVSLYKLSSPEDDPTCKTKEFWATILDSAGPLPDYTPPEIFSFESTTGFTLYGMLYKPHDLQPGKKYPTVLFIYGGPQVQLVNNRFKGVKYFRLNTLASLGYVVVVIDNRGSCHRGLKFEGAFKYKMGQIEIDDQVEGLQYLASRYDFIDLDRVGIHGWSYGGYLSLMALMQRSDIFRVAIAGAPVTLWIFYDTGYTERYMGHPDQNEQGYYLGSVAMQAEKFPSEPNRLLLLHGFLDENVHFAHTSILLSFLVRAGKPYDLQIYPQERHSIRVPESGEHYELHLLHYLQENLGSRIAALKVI
T3 sequence (Q6V1X1 17-898 limits assumed): as above

Compound: O[C@H](CS)[C@H](O)CS (racemic) [Dithiothreitol]
- Residual activity (% of control) (DPPIV [1]; inhibitor 2 mM): 109 % of control
- Residual activity (% of control) (DPP8 [2]; inhibitor 2 mM): 108 % of control

Compound: COc1cc(NC(=O)[C@@H]2CCCN2C(=O)[C@H](C)N)cc2ccccc12.Cl [Ala-Pro-4MβNA/HCl, H-Ala-Pro-4-methoxyβNA/HCl]
- Staining of DPP8-transfected cells by substrate [3]: stained

Compound: Cl.N=C(N)c1ccccc1 [Benzamidine/HCl]
- Residual activity (% of control) (DPPIV [1]; inhibitor 10 mM): 89 % of control
- Residual activity (% of control) (DPP8 [2]; inhibitor 10 mM): 82 % of control

Compound: C[C@H](N)C(=O)N[C@@H](C)C(=O)N[C@@H](Cc1ccccc1)C(=O)Nc1ccc([N+](=O)[O-])cc1 [H-Ala-Ala-Phe-pNA] (H-Ala-Ala-Phe-pNA)
- Hydrolysis (cleavage) of substrate by purified recombinant DPP8 (DPP8/V5/His): neither

Compound: C[C@H](N)C(=O)N[C@@H](C)C(=O)N1CCC[C@H]1C(=O)Nc1ccc([N+](=O)[O-])cc1.Cl [H-Ala-Ala-Pro-pNA] (H-Ala-Ala-Pro-pNA)
- Hydrolysis of substrate by extracts of DPP8-transfected COS-7 cells (DPP8 [4]): exhibited tripeptidyl peptidase activity

Compound: C[C@H](N)C(=O)N[C@@H](Cc1ccccc1)C(=O)N1CCC[C@H]1C(=O)Nc1ccc([N+](=O)[O-])cc1 [H-Ala-Phe-Pro-pNA] (H-Ala-Phe-Pro-pNA)
- Hydrolysis (cleavage) of substrate by purified recombinant DPP8 (DPP8/V5/His): neither

Compound: C[C@H](N)C(=O)N1CCC[C@H]1C(=O)Nc1ccc([N+](=O)[O-])cc1 [H-Ala-Pro-pNA] (H-Ala-Pro-pNA)
- Hydrolysis (cleavage) of substrate by purified recombinant DPP8 (DPP8/V5/His): hydrolyzed
- Hydrolysis of substrate by purified recombinant DPPIV (DPPIV/V5/His): hydrolyzed
- Vmax (DPPIV [5]): 9.6 ± 1.0 ΔA min^−1 × 1000
- Km (DPPIV [5]): 374 ± 134 µM
- Vmax (DPP8 [6]): 12.4 ± 0.9 ΔA min^−1 × 1000
- Km (DPP8 [6]): 991 ± 171 µM
- Hydrolysis of substrate by extracts of DPP8-transfected COS-7 cells (DPP8 [4]): hydrolyzed

Compound: NC(N)=NCCC[C@H](N)C(=O)N1CCC[C@H]1C(=O)Nc1ccc([N+](=O)[O-])cc1 [H-Arg-Pro-pNA] (H-Arg-Pro-pNA)
- Hydrolysis (cleavage) of substrate by purified recombinant DPP8 (DPP8/V5/His): hydrolyzed
- Hydrolysis of substrate by purified recombinant DPPIV (DPPIV/V5/His): hydrolyzed
- Hydrolysis of substrate by extracts of DPP8-transfected COS-7 cells (DPP8 [4]): hydrolyzed

Compound: NCC(=O)N1CCC[C@H]1C(=O)Nc1ccc([N+](=O)[O-])cc1 [H-Gly-Pro-pNA, H-Gly-Pro-p-nitroanilide] (H-Gly-Pro-pNA)
- Hydrolysis (cleavage) of substrate by purified recombinant DPP8 (DPP8/V5/His): hydrolyzed
- Hydrolysis of substrate by purified recombinant DPPIV (DPPIV/V5/His): hydrolyzed
- Vmax (DPPIV [5]): 7.2 ± 0.49 ΔA min^−1 × 1000
- Km (DPPIV [5]): 347 ± 88 µM
- Vmax (DPP8 [6]): 3.5 ± 0.14 ΔA min^−1 × 1000
- Km (DPP8 [6]): 467 ± 64 µM

Compound: NC(=O)CI [Iodoacetamide]
- Residual activity (% of control) (DPPIV [1]; inhibitor 2 mM): 115 % of control
- Residual activity (% of control) (DPP8 [2]; inhibitor 2 mM): 100 % of control

Compound: CC(=O)N[C@@H](CC(C)C)C(=O)N[C@@H](CC(C)C)C(=O)N[C@H](C=O)CCCNC(=N)N [Leupeptin]
- Residual activity (% of control) (DPPIV [1]; inhibitor 0.1 mM): 104 % of control
- Residual activity (% of control) (DPP8 [2]; inhibitor 0.1 mM): 93 % of control

Compound: CC(C)CC(=O)N[C@H](C(=O)N[C@H](C(=O)N[C@@H](CC(C)C)[C@@H](O)CC(=O)N[C@@H](C)C(=O)N[C@@H](CC(C)C)[C@@H](O)CC(=O)O)C(C)C)C(C)C [Pepstatin] (Isovaleryl-VV[Sta]A[Sta]-OH)
- Residual activity (% of control) (DPPIV [1]; inhibitor 2 μg mL^−1): 110 % of control
- Residual activity (% of control) (DPP8 [2]; inhibitor 2 μg mL^−1): 107 % of control

Compound: C[C@H](NC(=O)OCc1ccccc1)C(=O)N1CCC[C@H]1C(=O)Nc1ccc([N+](=O)[O-])cc1 [Z-Ala-Pro-pNA] (Cbz-Ala-Pro-pNA)
- Hydrolysis of substrate by extracts of DPP8-transfected COS-7 cells (DPP8 [4]): endopeptidase activity

Compound: O=S(=O)([O-])[O-].[Zn+2] [Zinc sulphate]
- Inhibition of DPPIV enzyme activity (in words) (DPPIV [7]): completely inhibits

Compound: Ala-Pro-Gly (APG) [peptide that mimics DPP8 substrates]
- Residual activity (% of control) (DPPIV [1]; inhibitor 10 mM): 67 % of control
- Residual activity (% of control) (DPP8 [2]; inhibitor 10 mM): 51 % of control
- Inhibition of DPP8 enzyme activity (in words) (DPP8 [2]; purified DPP8): probably competitively inhibited

Compound: Aprotinin
- Residual activity (% of control) (DPPIV [1]; inhibitor 4 μg mL^−1): 81 % of control
- Residual activity (% of control) (DPP8 [2]; inhibitor 4 μg mL^−1): 47 % of control

Compound: Gly-Gly-Gly (GGG) [peptide]
- Residual activity (% of control) (DPPIV [1]; inhibitor 10 mM): 106 % of control
- Residual activity (% of control) (DPP8 [2]; inhibitor 10 mM): 99 % of control
